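These data come from cells grown in 96-well plates and exposed to compound for 48 hours at five concentrations. The concentration for 50% growth inhibition is given as GI50. At the TGI there is no net growth.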
Key:
Assay in all cases: DTP human tumour cell line panel, 48 h
786-0 renal = system: 786-0 renal
A498 renal = system: A498 renal
A549 NSCLC = system: A549 NSCLC
ACHN renal = system: ACHN renal
BT-549 breast = system: BT-549 breast
CAKI-1 renal = system: CAKI-1 renal
CCRF-CEM leukemia = system: CCRF-CEM leukemia
COLO 205 colon = system: COLO 205 colon
DU-145 prostate = system: DU-145 prostate
EKVX NSCLC = system: EKVX NSCLC
HCC-2998 colon = system: HCC-2998 colon
HCT-116 colon = system: HCT-116 colon
HCT-15 colon = system: HCT-15 colon
HL-60(TB) leukemia = system: HL-60(TB) leukemia
HOP-62 NSCLC = system: HOP-62 NSCLC
HOP-92 NSCLC = system: HOP-92 NSCLC
HS 578T breast = system: HS 578T breast
HT29 colon = system: HT29 colon
IGROV1 ovarian = system: IGROV1 ovarian
K-562 leukemia = system: K-562 leukemia
KM12 colon = system: KM12 colon
LOX IMVI melanoma = system: LOX IMVI melanoma
M14 melanoma = system: M14 melanoma
MALME-3M melanoma = system: MALME-3M melanoma
MCF7 breast = system: MCF7 breast
MDA-MB-231 breast = system: MDA-MB-231 breast
MDA-MB-435 = system: MDA-MB-435
MOLT-4 leukemia = system: MOLT-4 leukemia
NCI-H226 lung = system: NCI-H226 lung
NCI-H23 lung = system: NCI-H23 lung
NCI-H460 lung = system: NCI-H460 lung
NCI-H522 lung = system: NCI-H522 lung
NCI/ADR-RES ovarian = system: NCI/ADR-RES ovarian
OVCAR-3 ovarian = system: OVCAR-3 ovarian
OVCAR-4 ovarian = system: OVCAR-4 ovarian
OVCAR-5 ovarian = system: OVCAR-5 ovarian
OVCAR-8 ovarian = system: OVCAR-8 ovarian
PC-3 prostate = system: PC-3 prostate
RPMI-8226 leukemia = system: RPMI-8226 leukemia
RXF 393 renal = system: RXF 393 renal
SF-268 CNS = system: SF-268 CNS
SF-295 CNS = system: SF-295 CNS
SF-539 CNS = system: SF-539 CNS
SK-MEL-2 melanoma = system: SK-MEL-2 melanoma
SK-MEL-28 melanoma = system: SK-MEL-28 melanoma
SK-MEL-5 melanoma = system: SK-MEL-5 melanoma
SK-OV-3 ovarian = system: SK-OV-3 ovarian
SN12C renal = system: SN12C renal
SNB-19 CNS = system: SNB-19 CNS
SNB-75 CNS = system: SNB-75 CNS
SR leukemia = system: SR leukemia
SW-620 colon = system: SW-620 colon
T-47D breast = system: T-47D breast
TK-10 renal = system: TK-10 renal
U251 CNS = system: U251 CNS
UACC-257 melanoma = system: UACC-257 melanoma
UACC-62 melanoma = system: UACC-62 melanoma
UO-31 renal = system: UO-31 renal

For CCn1c(-c2nonc2N)nc2cncc(C(=O)N3CCNCC3)c21, the GI50 (786-0 renal) was greater than 25 µM, the TGI (786-0 renal) was greater than 25 µM and the GI50 (A498 renal) was greater than 25 µM. The TGI (A498 renal) was greater than 25 µM, the GI50 (A549 NSCLC) was greater than 25 µM and the TGI (A549 NSCLC) was greater than 25 µM. The GI50 (ACHN renal) was greater than 25 µM, the TGI (ACHN renal) was greater than 25 µM and the GI50 (BT-549 breast) was greater than 25 µM. It also gave a TGI (BT-549 breast) greater than 25 µM, a GI50 (CAKI-1 renal) greater than 25 µM and a TGI (CAKI-1 renal) greater than 25 µM. For the same compound, the GI50 (CCRF-CEM leukemia) was greater than 25 µM, the TGI (CCRF-CEM leukemia) was greater than 25 µM and the GI50 (COLO 205 colon) was greater than 25 µM. It also gave a TGI (COLO 205 colon) greater than 25 µM, a GI50 (DU-145 prostate) greater than 25 µM and a TGI (DU-145 prostate) greater than 25 µM. The GI50 (EKVX NSCLC) was greater than 25 µM, the TGI (EKVX NSCLC) was greater than 25 µM and the GI50 (HCC-2998 colon) was greater than 25 µM. The TGI (HCC-2998 colon) was greater than 25 µM, the GI50 (HCT-116 colon) was greater than 25 µM and the TGI (HCT-116 colon) was greater than 25 µM. It also gave a GI50 (HCT-15 colon) greater than 25 µM, a TGI (HCT-15 colon) greater than 25 µM and a GI50 (HL-60(TB) leukemia) greater than 25 µM. It also gave a TGI (HL-60(TB) leukemia) greater than 25 µM, a GI50 (HOP-62 NSCLC) greater than 25 µM and a TGI (HOP-62 NSCLC) greater than 25 µM. For the same compound, the GI50 (HOP-92 NSCLC) was greater than 25 µM, the TGI (HOP-92 NSCLC) was greater than 25 µM and the GI50 (HS 578T breast) was greater than 25 µM. For the same compound, the TGI (HS 578T breast) was greater than 25 µM, the GI50 (HT29 colon) was greater than 25 µM and the TGI (HT29 colon) was greater than 25 µM. It also gave a GI50 (IGROV1 ovarian) greater than 25 µM, a TGI (IGROV1 ovarian) greater than 25 µM and a GI50 (K-562 leukemia) greater than 25 µM. The TGI (K-562 leukemia) was greater than 25 µM, the GI50 (KM12 colon) was greater than 25 µM and the TGI (KM12 colon) was greater than 25 µM. It also gave a GI50 (LOX IMVI melanoma) greater than 25 µM, a TGI (LOX IMVI melanoma) greater than 25 µM and a GI50 (M14 melanoma) greater than 25 µM. The TGI (M14 melanoma) was greater than 25 µM, the GI50 (MALME-3M melanoma) was greater than 25 µM and the TGI (MALME-3M melanoma) was greater than 25 µM. For the same compound, the GI50 (MCF7 breast) was greater than 25 µM, the TGI (MCF7 breast) was greater than 25 µM and the GI50 (MDA-MB-231 breast) was greater than 25 µM. For the same compound, the TGI (MDA-MB-231 breast) was greater than 25 µM, the GI50 (MDA-MB-435) was greater than 25 µM and the TGI (MDA-MB-435) was greater than 25 µM. It also gave a GI50 (MOLT-4 leukemia) greater than 25 µM, a TGI (MOLT-4 leukemia) greater than 25 µM and a GI50 (NCI-H226 lung) greater than 25 µM. It also gave a TGI (NCI-H226 lung) greater than 25 µM, a GI50 (NCI-H23 lung) greater than 25 µM and a TGI (NCI-H23 lung) greater than 25 µM. It also gave a GI50 (NCI-H460 lung) greater than 25 µM, a TGI (NCI-H460 lung) greater than 25 µM and a GI50 (NCI-H522 lung) greater than 25 µM. For the same compound, the TGI (NCI-H522 lung) was greater than 25 µM, the GI50 (NCI/ADR-RES ovarian) was greater than 25 µM and the TGI (NCI/ADR-RES ovarian) was greater than 25 µM. The GI50 (OVCAR-3 ovarian) was greater than 25 µM, the TGI (OVCAR-3 ovarian) was greater than 25 µM and the GI50 (OVCAR-4 ovarian) was greater than 25 µM. For the same compound, the TGI (OVCAR-4 ovarian) was greater than 25 µM, the GI50 (OVCAR-5 ovarian) was greater than 25 µM and the TGI (OVCAR-5 ovarian) was greater than 25 µM. For the same compound, the GI50 (OVCAR-8 ovarian) was greater than 25 µM, the TGI (OVCAR-8 ovarian) was greater than 25 µM and the GI50 (PC-3 prostate) was greater than 25 µM. The TGI (PC-3 prostate) was greater than 25 µM, the GI50 (RPMI-8226 leukemia) was greater than 25 µM and the TGI (RPMI-8226 leukemia) was greater than 25 µM. It also gave a GI50 (RXF 393 renal) greater than 25 µM, a TGI (RXF 393 renal) greater than 25 µM and a GI50 (SF-268 CNS) greater than 25 µM. The TGI (SF-268 CNS) was greater than 25 µM, the GI50 (SF-295 CNS) was greater than 25 µM and the TGI (SF-295 CNS) was greater than 25 µM. The GI50 (SF-539 CNS) was greater than 25 µM, the TGI (SF-539 CNS) was greater than 25 µM and the GI50 (SK-MEL-2 melanoma) was greater than 25 µM. The TGI (SK-MEL-2 melanoma) was greater than 25 µM, the GI50 (SK-MEL-28 melanoma) was greater than 25 µM and the TGI (SK-MEL-28 melanoma) was greater than 25 µM. The GI50 (SK-MEL-5 melanoma) was greater than 25 µM, the TGI (SK-MEL-5 melanoma) was greater than 25 µM and the GI50 (SK-OV-3 ovarian) was greater than 25 µM. For the same compound, the TGI (SK-OV-3 ovarian) was greater than 25 µM, the GI50 (SN12C renal) was greater than 25 µM and the TGI (SN12C renal) was greater than 25 µM. It also gave a GI50 (SNB-19 CNS) greater than 25 µM, a TGI (SNB-19 CNS) greater than 25 µM and a GI50 (SNB-75 CNS) greater than 25 µM. It also gave a TGI (SNB-75 CNS) greater than 25 µM, a GI50 (SR leukemia) greater than 25 µM and a TGI (SR leukemia) greater than 25 µM. It also gave a GI50 (SW-620 colon) greater than 25 µM, a TGI (SW-620 colon) greater than 25 µM and a GI50 (T-47D breast) greater than 25 µM. The TGI (T-47D breast) was greater than 25 µM, the GI50 (TK-10 renal) was greater than 25 µM and the TGI (TK-10 renal) was greater than 25 µM. For the same compound, the GI50 (U251 CNS) was greater than 25 µM, the TGI (U251 CNS) was greater than 25 µM and the GI50 (UACC-257 melanoma) was greater than 25 µM. For the same compound, the TGI (UACC-257 melanoma) was greater than 25 µM, the GI50 (UACC-62 melanoma) was greater than 25 µM and the TGI (UACC-62 melanoma) was greater than 25 µM. It also gave a GI50 (UO-31 renal) greater than 25 µM and a TGI (UO-31 renal) greater than 25 µM.

Source: PubChem BioAssay (NCI)
